{"source": "ChEMBL document CHEMBL4732223", "about": "“Prenylated flavonoids from Ficus hirta induces HeLa cells apoptosis via MAPK and AKT signaling pathways” (Bioorg Med Chem Lett, 2021)", "key": {"MCF7": {"test_system": "MCF7", "test": "Cytotoxicity against human MCF7 cells assessed as inhibition of cell proliferation by MTT assay", "format": "functional, cell-based"}, "HepG2": {"test_system": "HepG2", "test": "Cytotoxicity against human HepG2 cells assessed as inhibition of cell proliferation by MTT assay", "format": "functional, cell-based"}, "NCI-H460": {"test_system": "NCI-H460", "test": "Cytotoxicity against human NCI-H460 cells assessed as inhibition of cell proliferation by MTT assay", "format": "functional, cell-based"}, "HeLa [1]": {"test_system": "HeLa", "test": "Cytotoxicity against human HeLa cells assessed as inhibition of cell proliferation by MTT assay", "format": "functional, cell-based"}, "[2]": {"test": "Induction of apoptotis in human HeLa cells assessed as late apoptotic cells at 40 uM measured after 24 hrs by FITC/propidium iodide staining based flow cytometry (reference value: 2.74 %)", "format": "functional"}, "[3]": {"test": "Induction of apoptotis in human HeLa cells assessed as live cells at 10 uM measured after 24 hrs by FITC/propidium iodide staining based flow cytometry (reference value: 89.2 %)", "format": "functional"}, "[4]": {"test": "Induction of apoptotis in human HeLa cells assessed as late apoptotic cells at 30 uM measured after 24 hrs by FITC/propidium iodide staining based flow cytometry (reference value: 2.74 %)", "format": "functional"}, "HeLa [5]": {"test_system": "HeLa", "test": "Activation of MAPK signaling pathway in human HeLa cells assessed as reduction in phosphorylated ERK expression measured after 24 hrs by Western blot analysis", "format": "cell-based", "details": "filed as activator, dose 10-30 µM"}, "[6]": {"test": "Induction of apoptotis in human HeLa cells assessed as early apoptotic cells at 30 uM measured after 24 hrs by FITC/propidium iodide staining based flow cytometry (reference value: 5.46 %)", "format": "functional"}, "HeLa [7]": {"test_system": "HeLa", "test": "Induction of apoptosis in human HeLa cells assessed as increase in PARP cleavage measured after 24 hrs by Western blot analysis", "format": "functional, cell-based", "details": "dose 10-30 µM"}, "[8]": {"test": "Induction of apoptotis in human HeLa cells assessed as live cells at 20 uM measured after 24 hrs by FITC/propidium iodide staining based flow cytometry (reference value: 89.2 %)", "format": "functional"}, "HeLa [9]": {"test_system": "HeLa", "test": "Activation of MAPK signaling pathway in human HeLa cells assessed as increase in phosphorylated JNK protein level at 30 uM measured after 24 hrs by Western blot analysis", "format": "cell-based", "details": "filed as activator"}, "[10]": {"test": "Induction of apoptotis in human HeLa cells assessed as late apoptotic cells at 20 uM measured after 24 hrs by FITC/propidium iodide staining based flow cytometry (reference value: 2.74 %)", "format": "functional"}, "[11]": {"test": "Induction of apoptotis in human HeLa cells assessed as necrotic cells at 10 uM measured after 24 hrs by FITC/propidium iodide staining based flow cytometry (reference value: 2.59 %)", "format": "functional"}, "[12]": {"test": "Induction of apoptotis in human HeLa cells assessed as early apoptotic cells at 10 uM measured after 24 hrs by FITC/propidium iodide staining based flow cytometry (reference value: 5.46 %)", "format": "functional"}, "[13]": {"test": "Induction of apoptotis in human HeLa cells assessed as necrotic cells at 30 uM measured after 24 hrs by FITC/propidium iodide staining based flow cytometry (reference value: 2.59 %)", "format": "functional"}, "[14]": {"biological_target": "Serine/threonine-protein kinase AKT (Homo sapiens) (UniProt P31751+Q9Y243+P31749)", "sequence (P31749 whole entry, looked up)": "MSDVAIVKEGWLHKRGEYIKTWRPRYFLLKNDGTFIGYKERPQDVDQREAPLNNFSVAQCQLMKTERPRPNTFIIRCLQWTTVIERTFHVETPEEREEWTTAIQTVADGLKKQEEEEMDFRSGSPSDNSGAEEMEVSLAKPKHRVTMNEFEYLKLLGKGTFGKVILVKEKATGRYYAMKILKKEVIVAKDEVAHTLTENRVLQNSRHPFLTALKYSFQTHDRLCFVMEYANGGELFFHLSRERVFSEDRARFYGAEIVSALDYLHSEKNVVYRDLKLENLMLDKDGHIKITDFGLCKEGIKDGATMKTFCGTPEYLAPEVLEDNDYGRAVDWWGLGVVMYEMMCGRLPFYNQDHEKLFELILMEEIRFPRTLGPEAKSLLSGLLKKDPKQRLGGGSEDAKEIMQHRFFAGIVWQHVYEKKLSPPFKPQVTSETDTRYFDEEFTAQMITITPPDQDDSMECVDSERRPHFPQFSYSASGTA", "sequence (P31751 whole entry, looked up)": "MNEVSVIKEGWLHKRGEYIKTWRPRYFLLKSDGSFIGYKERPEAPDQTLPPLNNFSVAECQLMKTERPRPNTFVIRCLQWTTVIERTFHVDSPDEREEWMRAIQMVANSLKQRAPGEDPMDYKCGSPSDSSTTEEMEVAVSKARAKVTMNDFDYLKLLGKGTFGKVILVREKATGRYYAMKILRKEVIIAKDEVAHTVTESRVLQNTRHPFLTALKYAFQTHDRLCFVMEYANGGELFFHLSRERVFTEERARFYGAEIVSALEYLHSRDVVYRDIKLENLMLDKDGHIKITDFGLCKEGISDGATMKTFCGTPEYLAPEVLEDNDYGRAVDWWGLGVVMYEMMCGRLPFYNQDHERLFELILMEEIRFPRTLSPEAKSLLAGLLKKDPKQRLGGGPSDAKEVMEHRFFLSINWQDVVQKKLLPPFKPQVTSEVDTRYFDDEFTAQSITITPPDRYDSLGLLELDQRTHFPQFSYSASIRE", "sequence (Q9Y243 whole entry, looked up)": "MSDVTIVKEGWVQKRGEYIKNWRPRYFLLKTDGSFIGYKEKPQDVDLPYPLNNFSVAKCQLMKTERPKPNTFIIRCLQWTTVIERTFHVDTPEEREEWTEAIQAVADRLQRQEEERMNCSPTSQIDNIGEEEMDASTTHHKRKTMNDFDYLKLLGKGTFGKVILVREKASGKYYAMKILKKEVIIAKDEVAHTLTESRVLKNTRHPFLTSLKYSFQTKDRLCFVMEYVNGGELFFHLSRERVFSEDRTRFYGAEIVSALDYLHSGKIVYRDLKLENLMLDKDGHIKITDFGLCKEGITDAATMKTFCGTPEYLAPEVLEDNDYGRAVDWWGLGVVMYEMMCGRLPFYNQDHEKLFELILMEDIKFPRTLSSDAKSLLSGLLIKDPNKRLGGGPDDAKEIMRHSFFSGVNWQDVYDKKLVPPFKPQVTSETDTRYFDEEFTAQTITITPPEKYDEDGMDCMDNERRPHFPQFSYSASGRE", "test": "[…] of AKT signaling pathway in human HeLa cells assessed as reduction in phosphorylated AKT expression measured after 24 hrs by Western blot analysis", "format": "cell-based", "details": "dose 10-30 µM"}, "[15]": {"test": "Induction of apoptotis in human HeLa cells assessed as early apoptotic cells at 20 uM measured after 24 hrs by FITC/propidium iodide staining based flow cytometry (reference value: 5.46 %)", "format": "functional"}, "[16]": {"test": "Induction of apoptotis in human HeLa cells assessed as live cells at 30 uM measured after 24 hrs by FITC/propidium iodide staining based flow cytometry (reference value: 89.2 %)", "format": "functional"}, "[17]": {"test": "Induction of apoptotis in human HeLa cells assessed as early apoptotic cells at 40 uM measured after 24 hrs by FITC/propidium iodide staining based flow cytometry (reference value: 5.46 %)", "format": "functional"}, "[18]": {"test": "Induction of apoptotis in human HeLa cells assessed as necrotic cells at 20 uM measured after 24 hrs by FITC/propidium iodide staining based flow cytometry (reference value: 2.59 %)", "format": "functional"}, "[19]": {"test": "Induction of apoptotis in human HeLa cells assessed as late apoptotic cells at 10 uM measured after 24 hrs by FITC/propidium iodide staining based flow cytometry (reference value: 2.74 %)", "format": "functional"}, "[20]": {"test": "Induction of apoptotis in human HeLa cells assessed as necrotic cells at 40 uM measured after 24 hrs by FITC/propidium iodide staining based flow cytometry (reference value: 2.59 %)", "format": "functional"}, "HeLa [21]": {"test_system": "HeLa", "test": "Activation of MAPK signaling pathway in human HeLa cells assessed as increase in phosphorylated p38 protein level at 30 uM measured after 24 hrs by Western blot analysis", "format": "cell-based", "details": "filed as activator"}, "[22]": {"test": "Induction of apoptotis in human HeLa cells assessed as live cells at 40 uM measured after 24 hrs by FITC/propidium iodide staining based flow cytometry (reference value: 89.2 %)", "format": "functional"}}, "note": "Calls of active or inactive are those of the source. The calls are words filed in the database; no cut-off is given here.", "data": [{"smiles": "COc1c(CC=C(C)C)cc(C2CC(=O)c3c(O)cc(O)cc3O2)c(CC=C(C)C)c1OC", "note": "(racemic)", "values": [{"measurement": "IC50", "setting": "MCF7", "result": "> 40", "unit": "µM"}, {"measurement": "IC50", "setting": "HepG2", "result": "> 40", "unit": "µM"}, {"measurement": "IC50", "setting": "NCI-H460", "result": "> 40", "unit": "µM"}, {"measurement": "IC50", "setting": "HeLa [1]", "result": "> 40", "unit": "µM"}]}, {"smiles": "CC(C)=CCc1c(O)cc2oc(-c3ccc(O)c(O)c3)cc(=O)c2c1O", "values": [{"measurement": "IC50", "setting": "MCF7", "result": "> 40", "unit": "µM"}, {"measurement": "IC50", "setting": "HepG2", "result": "> 40", "unit": "µM"}, {"measurement": "IC50", "setting": "NCI-H460", "result": "> 40", "unit": "µM"}, {"measurement": "IC50", "setting": "HeLa [1]", "result": "> 40", "unit": "µM"}]}, {"smiles": "CC(C)=CCc1c(O)cc(O)c2c(=O)cc(-c3ccc(O)cc3)oc12", "values": [{"measurement": "IC50", "setting": "MCF7", "result": "> 40", "unit": "µM"}, {"measurement": "IC50", "setting": "HepG2", "result": "> 40", "unit": "µM"}, {"measurement": "IC50", "setting": "NCI-H460", "result": "> 40", "unit": "µM"}, {"measurement": "IC50", "setting": "HeLa [1]", "result": "> 40", "unit": "µM"}]}, {"smiles": "CC(C)=CCc1cc(-c2cc(=O)c3c(O)cc(O)cc3o2)ccc1O", "values": [{"measurement": "IC50", "setting": "MCF7", "result": "> 40", "unit": "µM"}, {"measurement": "IC50", "setting": "HepG2", "result": "> 40", "unit": "µM"}, {"measurement": "IC50", "setting": "NCI-H460", "result": "> 40", "unit": "µM"}, {"measurement": "IC50", "setting": "HeLa [1]", "result": "> 40", "unit": "µM"}]}, {"smiles": "CC(C)=CCc1cc(-c2cc(=O)c3c(O)cc(O)cc3o2)cc(O)c1O", "values": [{"measurement": "IC50", "setting": "MCF7", "result": "> 40", "unit": "µM"}, {"measurement": "IC50", "setting": "HepG2", "result": "> 40", "unit": "µM"}, {"measurement": "IC50", "setting": "NCI-H460", "result": "> 40", "unit": "µM"}, {"measurement": "IC50", "setting": "HeLa [1]", "result": "> 40", "unit": "µM"}]}, {"smiles": "CC(C)=CCc1c(O)cc2oc(-c3ccc(O)cc3)cc(=O)c2c1O", "values": [{"measurement": "Activity", "setting": "[2]", "result": 4.28, "unit": "%"}, {"measurement": "Activity", "setting": "[3]", "result": 88.2, "unit": "%"}, {"measurement": "IC50", "setting": "MCF7", "result": 32.4, "unit": "µM"}, {"measurement": "Activity", "setting": "[4]", "result": 3.4, "unit": "%"}, {"measurement": "Activity", "setting": "HeLa [5]", "result": "Dose-dependent effect"}, {"measurement": "Activity", "setting": "[6]", "result": 9.41, "unit": "%"}, {"measurement": "Activity", "setting": "HeLa [7]", "result": "Dose-dependent effect"}, {"measurement": "Activity", "setting": "[8]", "result": 87.6, "unit": "%"}, {"measurement": "Activity", "setting": "HeLa [9]", "result": "Active"}, {"measurement": "IC50", "setting": "HepG2", "result": "> 40", "unit": "µM"}, {"measurement": "Activity", "setting": "[10]", "result": 3.23, "unit": "%"}, {"measurement": "Activity", "setting": "[11]", "result": 0.75, "unit": "%"}, {"measurement": "Activity", "setting": "[12]", "result": 6.92, "unit": "%"}, {"measurement": "Activity", "setting": "[13]", "result": 0.69, "unit": "%"}, {"measurement": "Activity", "setting": "[14]", "result": "Dose-dependent effect"}, {"measurement": "Activity", "setting": "[15]", "result": 8.25, "unit": "%"}, {"measurement": "Activity", "setting": "[16]", "result": 86.5, "unit": "%"}, {"measurement": "IC50", "setting": "NCI-H460", "result": 38.5, "unit": "µM"}, {"measurement": "Activity", "setting": "[17]", "result": 12.5, "unit": "%"}, {"measurement": "IC50", "setting": "HeLa [1]", "result": 28.9, "unit": "µM"}, {"measurement": "Activity", "setting": "[18]", "result": 0.88, "unit": "%"}, {"measurement": "Activity", "setting": "[19]", "result": 4.11, "unit": "%"}, {"measurement": "Activity", "setting": "[20]", "result": 0.63, "unit": "%"}, {"measurement": "Activity", "setting": "HeLa [21]", "result": "Active"}, {"measurement": "Activity", "setting": "[22]", "result": 82.6, "unit": "%"}]}]}
